Results from US20250230193A1, “CYCLIC COMPOUND HAVING SELECTIVE KRAS INHIBITORY EFFECT ON HRAS AND NRAS” (CHUGAI SEIYAKU KABUSHIKI KAISHA, priority 2022, published 2025).

Experiments:
[1] = target: GDP-bound NRAS wild-type protein (Homo sapiens, UniProt P01111); assay: Binding to NRAS by surface plasmon resonance (SPR), Single Cycle Kinetics; conditions: KD ratio NRAS/KRAS, class symbols
[2] = target: GDP-bound HRAS wild-type protein (Homo sapiens, UniProt P01112); assay: Binding to HRAS by surface plasmon resonance (SPR), Single Cycle Kinetics; conditions: KD ratio HRAS/KRAS, class symbols
Chain of GDP-bound HRAS wild-type protein (P01112 whole entry): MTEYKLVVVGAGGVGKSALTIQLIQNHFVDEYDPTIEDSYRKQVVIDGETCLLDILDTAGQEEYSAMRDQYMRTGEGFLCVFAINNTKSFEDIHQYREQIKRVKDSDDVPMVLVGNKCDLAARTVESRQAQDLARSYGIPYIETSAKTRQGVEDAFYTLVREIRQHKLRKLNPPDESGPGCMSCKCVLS

Chain of GDP-bound NRAS wild-type protein (P01111 whole entry): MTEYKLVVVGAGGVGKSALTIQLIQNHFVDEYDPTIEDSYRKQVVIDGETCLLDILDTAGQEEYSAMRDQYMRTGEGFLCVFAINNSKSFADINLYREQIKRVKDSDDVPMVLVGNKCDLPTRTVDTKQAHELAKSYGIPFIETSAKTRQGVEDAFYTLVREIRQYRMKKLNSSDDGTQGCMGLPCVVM

SMILES	NRAS/KRAS (ratio of KD value with respect to GDP-bound NRAS wild-type protein to KD value with respect to KRAS) [1]	HRAS/KRAS (ratio of KD value with respect to GDP-bound HRAS wild-type protein to KD value with respect to KRAS) [2]
CCC[C@H]1C(=O)N[C@@H]([C@@H](C)CC)C(=O)N(C2CC2)CC(=O)N(C)[C@H]2C/C=C\CCN(C2=O)[C@@H](Cc2ccc(C)cc2)C(=O)N(C)CC(=O)N[C@@H](CCc2ccc(C(F)(F)F)c(OC)c2)C(=O)N2C[C@H](OCC)C[C@H]2C(=O)NC2(CC(C)(C)C2)C(=O)N(C)[C@@H](CC(C)(C)C)C(=O)N(C)[C@H](C(=O)N(C)C)CC(=O)N1C [PP2722]	B (a compound having 3 or more and less than 10 is denoted as B)	B (a compound having 3 or more and less than 10 is denoted as B)
CCOC[C@H]1C(=O)N[C@@H]([C@@H](C)CC)C(=O)N(C2CC2)CC(=O)N(C)[C@H]2C/C=C\CCN(C2=O)[C@@H](Cc2ccc(C)cc2)C(=O)N(C)CC(=O)N[C@@H](CCc2ccc(C(F)(F)F)c(OC)c2)C(=O)N2C[C@H](OCC)C[C@H]2C(=O)NC2(CC(C)(C)C2)C(=O)N(C)[C@@H](CC(C)(C)C)C(=O)N(C)[C@H](C(=O)N(C)C)CC(=O)N1C [PP2724]	A (a compound having 10 or more and less than 20 is denoted as A)	B (a compound having 3 or more and less than 10 is denoted as B)
CCC[C@H]1C(=O)N[C@@H]([C@@H](C)CC)C(=O)N(C2CC2)CC(=O)N(C)[C@H]2C/C=C\CCN(C2=O)[C@@H](Cc2ccc(C)cc2)C(=O)N(C)CC(=O)N[C@@H](CCc2ccc(Cl)c(Cl)c2)C(=O)N2C[C@H](OCC)C[C@H]2C(=O)NC2(CC(C)(C)C2)C(=O)N(C)[C@@H](CC(C)(C)C)C(=O)N(C)[C@H](C(=O)N(C)C)CC(=O)N1C [PP2726]	AA (a compound having 20 or more is denoted as AA)	A (a compound having 10 or more and less than 20 is denoted as A)
CCOC[C@H]1C(=O)N[C@@H]([C@@H](C)CC)C(=O)N(C2CC2)CC(=O)N(C)[C@H]2C/C=C\CCN(C2=O)[C@@H](Cc2ccc(C)cc2)C(=O)N(C)CC(=O)N[C@@H](CCc2ccc(Cl)c(Cl)c2)C(=O)N2C[C@H](OCC)C[C@H]2C(=O)NC2(CC(C)(C)C2)C(=O)N(C)[C@@H](CC(C)(C)C)C(=O)N(C)[C@H](C(=O)N(C)C)CC(=O)N1C [PP2728]	AA (a compound having 20 or more is denoted as AA)	A (a compound having 10 or more and less than 20 is denoted as A)
CCOC[C@H]1C(=O)N[C@@H]([C@@H](C)CC)C(=O)N(C)CC(=O)N(C)[C@H]2C/C=C\CCN(C2=O)[C@@H](Cc2ccc(C(F)(F)F)cc2)C(=O)N(C)CC(=O)N[C@@H](CCc2cc(F)c(C(F)(F)F)c(F)c2)C(=O)N2C[C@H](OCC)C[C@H]2C(=O)NC2(CC(C)(C)C2)C(=O)N(C)[C@@H](CC(C)(C)C)C(=O)N(C)[C@H](C(=O)N(C)C)CC(=O)N1C [PP2732]	A (a compound having 10 or more and less than 20 is denoted as A)	A (a compound having 10 or more and less than 20 is denoted as A)
CCC[C@H]1C(=O)N[C@@H]([C@@H](C)CC)C(=O)N(C)CC(=O)N(C)[C@H]2C/C=C\CCN(C2=O)[C@@H](Cc2ccc(C(F)(F)F)cc2)C(=O)N(C)CC(=O)N[C@@H](CCc2ccc(C(F)(F)F)c(OC)c2)C(=O)N2C[C@H](OCC)C[C@H]2C(=O)NC2(CC(C)(C)C2)C(=O)N(C)[C@@H](CC(C)(C)C)C(=O)N(C)[C@H](C(=O)N(C)C)CC(=O)N1C [PP2734]	A (a compound having 10 or more and less than 20 is denoted as A)	B (a compound having 3 or more and less than 10 is denoted as B)
CCOC[C@H]1C(=O)N[C@@H]([C@@H](C)CC)C(=O)N(C)CC(=O)N(C)[C@H]2C/C=C\CCN(C2=O)[C@@H](Cc2ccc(C(F)(F)F)cc2)C(=O)N(C)CC(=O)N[C@@H](CCc2ccc(C(F)(F)F)c(OC)c2)C(=O)N2C[C@H](OCC)C[C@H]2C(=O)NC2(CC(C)(C)C2)C(=O)N(C)[C@@H](CC(C)(C)C)C(=O)N(C)[C@H](C(=O)N(C)C)CC(=O)N1C [PP2736]	A (a compound having 10 or more and less than 20 is denoted as A)	A (a compound having 10 or more and less than 20 is denoted as A)
CCC[C@H]1C(=O)N[C@@H]([C@@H](C)CC)C(=O)N(C)CC(=O)N(C)[C@H]2C/C=C\CCN(C2=O)[C@@H](Cc2ccc(C(F)(F)F)cc2)C(=O)N(C)CC(=O)N[C@@H](CCc2ccc(Cl)c(Cl)c2)C(=O)N2C[C@H](OCC)C[C@H]2C(=O)NC2(CC(C)(C)C2)C(=O)N(C)[C@@H](CC(C)(C)C)C(=O)N(C)[C@H](C(=O)N(C)C)CC(=O)N1C [PP2738]	AA (a compound having 20 or more is denoted as AA)	A (a compound having 10 or more and less than 20 is denoted as A)
